Consider 2 substances from US11529394B2, “Polypeptide conjugates and methods of uses” (BEIJING QL BIOPHARMACEUTICAL CO., LTD., priority 2020, dated 2022).

The conditions of series [1]: endogenous GLP-1; cited from earlier work.
The next series deals with human serum albumin (Homo sapiens, UniProt P02768). Put plainly: Human serum albumin binding by surface plasmon resonance (Biacore 8K). The following applies: human serum albumin on CM5 chip, SPR. (Surface plasmon resonance follows binding to a sensor surface in real time, without labels.)
The next series has as its system db/db mice. In words: Non-fasting glucose in db/db mice after single subcutaneous dose. The class given is in vivo. The note with it: non-fasting delta blood glucose. The procedure: Method: 10 weeks old male db/db mice were injected subcutaneously with protein once. […] Delta blood glucose is glucose subtracted by baseline level. […] The area under the curve for delta blood glucose from 0 until 192 hours (AUCΔBG 0-192 h) was calculated.

The nature of series [2]: Body weight loss in C57 lean mice after single subcutaneous dose. The class given is in vivo, C57BL/6 mice. The procedure: Method: 10 week old male C57BL/6 mice were injected subcutaneously with protein once on Day 1. Body weight was measured daily and five animals were used for each treatment group. […] The area under the curve for body weight loss (%) from 0 until 8 days (AUC ΔBW 0-8d) was calculated.

The target in another series is GLP-1 receptor (Homo sapiens, UniProt P43220). The following applies: cited from earlier work.
Chain of GLP-1 receptor (P43220 24-463, species assumed): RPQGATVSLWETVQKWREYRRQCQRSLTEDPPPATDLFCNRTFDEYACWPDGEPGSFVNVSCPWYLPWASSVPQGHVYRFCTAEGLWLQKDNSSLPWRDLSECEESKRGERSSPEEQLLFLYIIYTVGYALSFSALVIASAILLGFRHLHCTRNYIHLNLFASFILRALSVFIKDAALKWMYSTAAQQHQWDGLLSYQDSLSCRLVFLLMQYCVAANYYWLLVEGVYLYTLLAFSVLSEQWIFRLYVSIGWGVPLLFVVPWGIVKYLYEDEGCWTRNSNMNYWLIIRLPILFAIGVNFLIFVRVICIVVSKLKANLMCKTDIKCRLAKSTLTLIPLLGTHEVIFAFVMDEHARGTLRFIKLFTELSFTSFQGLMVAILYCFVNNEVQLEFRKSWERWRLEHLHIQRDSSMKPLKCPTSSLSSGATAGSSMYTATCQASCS

Chain of human serum albumin (P02768 25-609): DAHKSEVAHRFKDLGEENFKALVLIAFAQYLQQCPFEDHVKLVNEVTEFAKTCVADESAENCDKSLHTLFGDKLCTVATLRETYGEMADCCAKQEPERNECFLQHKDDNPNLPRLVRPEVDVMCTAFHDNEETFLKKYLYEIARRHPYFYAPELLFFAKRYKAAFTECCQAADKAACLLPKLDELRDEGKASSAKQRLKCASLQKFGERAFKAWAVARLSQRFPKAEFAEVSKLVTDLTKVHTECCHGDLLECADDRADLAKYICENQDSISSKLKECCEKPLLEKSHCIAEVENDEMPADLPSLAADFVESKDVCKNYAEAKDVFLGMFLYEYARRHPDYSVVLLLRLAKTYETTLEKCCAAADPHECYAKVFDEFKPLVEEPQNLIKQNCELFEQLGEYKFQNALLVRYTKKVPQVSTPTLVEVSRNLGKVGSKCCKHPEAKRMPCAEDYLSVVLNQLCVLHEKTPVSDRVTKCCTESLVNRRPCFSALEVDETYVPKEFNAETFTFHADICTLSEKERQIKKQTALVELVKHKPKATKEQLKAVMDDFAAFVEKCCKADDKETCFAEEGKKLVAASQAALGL
Description for human serum albumin: Method: Binding of molecules to serum albumin was characterized by surface plastron resonance in a Biacore 8K instrument, Serum albumin from different species was covalently bound to CM5 sensor chips surface until 4000 RU was reached. The chip was blocked by 1M ethanolamine with flowrate of 10 μL/min for 420 s, Each molecule sample was diluted and injected at a flow rate of 30 μL/min to allow for binding to chip-bound albumin for 120 s and for dissociation for 300 s. Binding buffer without molecule was sent over the chip at the flow rate of 20 seconds to allow spontaneous dissociation of bound molecule for 30 seconds.

In the case of “GLP-1: endogenous Glucagon-Like Peptide-1, 30 or 31 amino acid peptide fragment (7-36 or 7-37)”, the half-life result in series [1] is recorded as “approximately 2 minutes”.
On to semaglutide [reference compound], for which, at human serum albumin, the Rmax is on record as 55.2 RU. Besides, the “AUC ΔBG 0-192 h” value is -317.0 mmol·h/L in the series with db/db mice (3 nmol/kg s.c. once), -583.4 mmol·h/L in the series on db/db mice (10 nmol/kg s.c. once) and -527.1 mmol·h/L in the series on db/db mice (30 nmol/kg s.c. once). The “AUC ΔBW 0-8 d” value in series [2] (Study 1 (FIG. 1A and 1B), 3 nmol/kg s.c. once) is on record as −0.6 day* %; in series [2] (Study 1 (FIG. 1A and 1B), 10 nmol/kg s.c. once) it was −11.1 day* %; in series [2] (Study 1 (FIG. 1A and 1B), 30 nmol/kg s.c. once), −12.7 day* %; in series [2] (Study 2 (FIG. 1C), 30 nmol/kg s.c. once), −9.3 day* %; in series [2] (Study 3 (FIG. 1D), 30 nmol/kg s.c. once) it was −13.2 day* %. Also, the “loss in GLP-1 receptor binding in presence of human serum albumin (HSA) relative to unconjugated counterpart” value on GLP-1 receptor was 939 fold.
